US9266852B2, “Daidzein derivative, pharmaceutically acceptable salt and preparation method thereof, and pharmaceutical composition containing same” (ANHUI BIOCHEM BIO-PHARMACEUTICAL CO., LTD, priority 2011, dated 2016)
Structures can show the parent of a compound that is named as a salt.

Legend:
decapitated mice = assay: Acute cerebral ischemia in mice (gasping time of decapitated mice); assay type: in vivo; settings: for effect on acute ischemia tolerance time, in words: conclusion from table 5, mice, intraperitoneal; for Gasping times (X ± s) / Prolongation rates (gasping time): decapitated mice; for Gasping times (X ± s): 20 min after administration, n = 10, control group 18.5 ± 3.1; for Prolongation rates (gasping time): versus control group
Method: 70 mice were taken and randomly divided into seven groups, except the blank group which was not administered and the saline group which was administered with the same volume of saline, the remaining five groups were respectively injected intraperitoneally with 25 mg/kg pueraria daidzein, 36 mg/kg compound of the example of the present application, 47 mg/kg 4,7-disubstituted daidzein, 36 mg/kg 4-substituted daidzein and 36 mg/kg USP compound (the converted dose of each compound is equivalent to the dose of the daidzein, since the daidzein is difficult to dissolve in water, 50% propylene glycol aqueous solution is used to dissolve, and other compounds were dissolved with water to achieve a suitable concentration), 20 min after administration, the mice were decapitated rapidly from behind the ear, then the time starting from decapitation to the last gasp was recorded.

thrombus = assay: Formation time and length of thrombus in rabbit blood, thrombosis instrument (antithrombotic effect research 2); assay type: in vivo, rabbits; settings: for antithrombotic effect after oral administration, in words: conclusion from table 7, rabbits; for Lengths of thrombus, after administration / Thrombus formation times (X ± s), after administration / Lengths of thrombus, before administration / Thrombus formation times (X ± s), before administration: rabbits; for Lengths of thrombus, after administration: 15 minutes rotation; for Thrombus formation times (X ± s), after administration: 30 minutes after last administration; for Lengths of thrombus, before administration / Thrombus formation times (X ± s), before administration: baseline before administration
Method: 30 rabbits were taken and randomly divided into five groups, each group was administered intragastrically with 15 mg/kg pueraria daidzein, 22 mg/kg compound of the example of the present application, 28 mg/kg 4,7-disubstituted daidzein, 22 mg/kg 4-substituted daidzein and 22 mg/kg USP compound (the converted dose of each compound is equivalent to the dose of the daidzein, since the daidzein is difficult to dissolve in water, 50% propylene glycol aqueous solution is used to dissolve, and other compounds were dissolved with water to achieve a suitable concentration), 2 ml blood was taken from the heart before administration, and after 7 consecutive days of administration, 2 ml blood was taken from the heart 30 minutes after the last administration, and injected immediately into the rotating ring of the thrombosis instrument, and rotated at 15-17 rpm under 37° C., and the rotating time of the thrombus alone with the ring was recorded, which is defined as thrombus formation time of fibrin, the rotation was stopped after 15 minutes, the thrombus was taken out, and the length of the thrombus was measured.

[1] = tested on: mice with hypoxia tolerance at normal pressure; assay: Hypoxia tolerance of mice at normal pressure (survival time in closed jar); assay type: in vivo; settings: for effect on hypoxia tolerance time, in words: conclusion from table 4, mice, intraperitoneal; for Survival times (X ± s) / Prolongation rates (survival time): mice; for Survival times (X ± s): 20 min after administration, n = 10, control group 22.5 ± 2.6; for Prolongation rates (survival time): versus control group
Method: 70 mice were taken and randomly divided into seven groups, except the blank group which was not administered and the saline group which was administered with the same volume of saline, the remaining five groups were respectively injected intraperitoneally with 25 mg/kg pueraria daidzein, 36 mg/kg compound of the example of the present application, 47 mg/kg 4,7-disubstituted daidzein, 36 mg/kg 4-substituted daidzein and 36 mg/kg USP compound (the converted dose of each compound is equivalent to the dose of the daidzein, since the daidzein is difficult to dissolve in water, 50% propylene glycol aqueous solution is used to dissolve, and other compounds were dissolved with water to achieve a suitable concentration), 20 min after administration, the mice were put into a 250 ml grinding jar (where 10 g soda lime was placed), with one mouse in each jar, and the jar was capped tightly after the mouse was put into the jar, then the survival time of the mice was immediately recorded by a stopwatch.

[2] = tested on: euglobulin lysis time of guinea pigs; assay: Euglobulin lysis time of guinea pigs (antithrombotic effect research 1); assay type: in vivo; settings: for antithrombotic effect after oral administration, in words: conclusion from table 6, guinea pigs; for Optimal dissolution times (X ± s), after administration / Fibrinolytic enzyme activities, after administration / Optimal dissolution times (X ± s), before administration / Fibrinolytic enzyme activities, before administration: guinea pigs; for Optimal dissolution times (X ± s), after administration: 30 minutes after last administration; for Fibrinolytic enzyme activities, after administration / Fibrinolytic enzyme activities, before administration: =10000/optimal dissolution time (min); for Optimal dissolution times (X ± s), before administration / Fibrinolytic enzyme activities, before administration: baseline before administration
Method: 30 guinea pigs were taken and randomly divided into five groups, each group was administered intragastrically with 25 mg/kg pueraria daidzein, 36 mg/kg compound of the example of the present application, 47 mg/kg 4,7-disubstituted daidzein, 36 mg/kg 4-substituted daidzein, and 36 mg/kg USP compound (the converted dose of each compound is equivalent to the dose of the daidzein, since the daidzein is difficult to dissolve in water, 50% propylene glycol aqueous solution is used to dissolve, and other compounds were dissolved with water to achieve a suitable concentration), 1.5 ml blood was taken from the heart before administration, and after 7 consecutive days of administration, 1.5 ml blood was taken from the heart 30 minutes after the last administration, and put into a sodium citrate anti-cruor tube, and the plasma was separated by centrifugation, then 0.5 ml plasma was taken and added with 9 ml distilled water and 0.1 ml of 1% acetic acid solution, and the mixture was centrifugated after being refrigerated for 30 minutes, then the resulting precipitate was dissolved with 0.5 ml sodium borate buffer (pH9.0), and the dissolution time was recorded as euglobulin lysis time, it can be obtained through calculation that fibrinolytic enzyme activity (u)=10000/optimal dissolution time (min).

[3] = Experiment of solubility: solvent equilibrium experiment in methanol, gravimetric analysis; assay type: physicochemical; settings: for solubility (solvent equilibrium experiment): methanol, 25°C, at least 20 hours, gravimetric, approximate
Method: in the water bath at 25±5° C., the solvent equilibrium experiment was performed on the above materials for at least 20 hours by using 1 mL methanol, then the solution was filtered and dried in the air for 10 minutes, and after the solvent was evaporated under vacuum, the approximate solubilities of the above materials in the solvent was measured through gravimetric analysis, with results shown in table 1.

rat in vitro thrombosis = assay: Anti-thrombosis experiment: rat in vitro thrombosis after oral administration (artery-jugular vein blood flow bypass method); assay type: in vivo, rat (Wistar, male)
Method: 1. Rat in vitro general artery-jugular vein blood flow in the bypass method (please refer to “Journal of Changchun University of Traditional Chinese Medicine”, 2011, Volume 27, Issue 4, Pages 514-518, Yunfei Sun, Min Shi, “Study on the Effect of Pueraria Injection on Thrombosis Formation, Cerebral Ischemia and Platelet Aggregation in Rats);
1. Experiment in vivo: the dose is 50 mg/kg, 100 mg/kg, 200 mg/kg, and the animals are administered intragastrically once daily at 1 ml/100 g […] for 3 consecutive days;
2. Positive control, the animals are administered with acetylsalicylic acid (produced by Northwest Second Synthetic Pharmaceutical Factory) at 45 mg/kg in the experiment in vivo.

[4] = tested on: whole blood in vitro thrombosis of normal rats; assay: Anti-thrombosis experiment: whole blood in vitro thrombosis after in vitro administration (in vitro thrombosis instrument method); settings: Rattus norvegicus, read-out: Thrombosis inhibition rates
Method: ii) Experimental animals: Wistar, which is a male rat outbreeding closed system, purchased from the Institute of Laboratory Animal Sciences, Chinese Academy of Medical Sciences, weighing 242±11.2 g, the animals are divided into 5 groups with 10 animals in each group.
Experiment in vitro: the dose is 1.56 mg/kg, 3.12 mg/kg, 6.25 mg/kg, and the animals are administered once directly.
Blank control, the animals are administered with the same volume of distilled water in the experiment in vivo; and administered with the same volume of saline in the experiment in vitro;

[5] = 22 mg/kg intragastrically 7 consecutive days
[6] = 36 mg/kg intragastrically 7 consecutive days
[7] = 36 mg/kg intragastrically 7 days
[8] = 15 mg/kg intragastrically 7 consecutive days

Row | Structure (SMILES) | Gasping times (X ± s) (decapitated mice; 36 mg/kg intraperitoneally) [s] | Prolongation rates (gasping time) (decapitated mice; 36 mg/kg intraperitoneally) [%] | Lengths of thrombus, after administration (thrombus; [5]) [cm] | Thrombus formation times (X ± s), after administration (thrombus; [5]) [min] | Lengths of thrombus, before administration (thrombus; 22 mg/kg group) [cm] | Thrombus formation times (X ± s), before administration (thrombus; 22 mg/kg group) [min] | Survival times (X ± s) ([1]; 36 mg/kg intraperitoneally) [min] | Optimal dissolution times (X ± s), after administration [2, 6] [min] | Fibrinolytic enzyme activities, after administration [2, 7] [u] | Optimal dissolution times (X ± s), before administration ([2]; 36 mg/kg group) [min] | Fibrinolytic enzyme activities, before administration ([2]; 36 mg/kg group) [u] | solubility (solvent equilibrium experiment) [3] [mg/g] | also measured
1 | CCN(CC)CC(=O)Oc1ccc2c(=O)c(-c3ccc(O)cc3)coc2c1 | 26.7 ± 4.8 | 44.3 | 10.7 ± 1.96 | 8.17 ± 1.54 | 14.9 ± 1.27 | 6.29 ± 1.31 | 35.1 ± 6.6 | 20.6 ± 5.5 | 485.4 | 33.6 ± 11.1 | 297.6 |  | effect on acute ischemia tolerance time, in words (decapitated mice): significantly prolong; antithrombotic effect after oral administration, in words (thrombus): significant efficacy; effect on hypoxia tolerance time, in words [1]: significantly prolong; Prolongation rates (survival time) ([1]; 36 mg/kg intraperitoneally): 56%; antithrombotic effect after oral administration, in words [2]: significant efficacy
2 | O=C(CCl)Oc1ccc2c(=O)c(-c3ccc(O)cc3)coc2c1 [7-O-chloroacetyl daidzein] |  |  |  |  |  |  |  |  |  |  |  | 17.6 | 
3 | CN(C)CCCC(=O)Oc1ccc2c(=O)c(-c3ccc(O)cc3)coc2c1 [USP compound, 7-O—N,N-dimethyl-aminobutyryl daidzein] | 23.5 ± 7.2 | 27 | 11.8 ± 2.01 | 7.31 ± 1.72 | 14.1 ± 3.84 | 6.37 ± 1.72 | 24.6 ± 5.7 | 25.7 ± 7.7 | 389.1 | 35.5 ± 8.2 | 281.7 |  | Prolongation rates (survival time) ([1]; 36 mg/kg intraperitoneally): 9.3%
4 | CCN(CC)CC(=O)Oc1ccc(-c2coc3cc(O)ccc3c2=O)cc1 [4-substituted daidzein] | 20.3 ± 8.1 | 9.7 | 14.1 ± 2.17 | 7.25 ± 1.34 | 14.7 ± 2.02 | 6.44 ± 1.71 | 21.1 ± 6.4 | 29.3 ± 5.7 | 341.3 | 30.3 ± 9.4 | 330.0 |  | 
5 | O=c1c(-c2ccc(O)cc2)coc2cc(O)ccc12 [Pueraria daidzein, daidzein] |  |  |  |  |  |  |  |  |  |  |  | 16.8 | effect on acute ischemia tolerance time, in words (decapitated mice): poor effect; Gasping times (X ± s) (decapitated mice; 25 mg/kg intraperitoneally): 23.1 ± 6.2 s; Prolongation rates (gasping time) (decapitated mice; 25 mg/kg intraperitoneally): 24.9%; antithrombotic effect after oral administration, in words (thrombus): weak antithrombotic effect; Lengths of thrombus, after administration (thrombus; [8]): 12.8 ± 1.49 cm; Thrombus formation times (X ± s), after administration (thrombus; [8]): 7.18 ± 1.27 min; Lengths of thrombus, before administration (thrombus; 15 mg/kg group): 14.2 ± 1.95 cm; Thrombus formation times (X ± s), before administration (thrombus; 15 mg/kg group): 6.21 ± 1.23 min; effect on hypoxia tolerance time, in words [1]: poor effect; Survival times (X ± s) ([1]; 25 mg/kg intraperitoneally): 28.1 ± 5.3 min; Prolongation rates (survival time) ([1]; 25 mg/kg intraperitoneally): 24.9%; antithrombotic effect after oral administration, in words [2]: weak antithrombotic effect; Optimal dissolution times (X ± s), after administration ([2]; 25 mg/kg intragastrically 7 consecutive days): 27.3 ± 8.4 min; Fibrinolytic enzyme activities, after administration ([2]; 25 mg/kg intragastrically 7 days): 366.3 u; Optimal dissolution times (X ± s), before administration ([2]; 25 mg/kg group): 34.5 ± 10.1 min; Fibrinolytic enzyme activities, before administration ([2]; 25 mg/kg group): 289.9 u
6 | CC(=O)Oc1ccccc1C(=O)O [Acetylsalicylic acid, acetylsalicylic acid] |  |  |  |  |  |  |  |  |  |  |  |  | inhibition at 45 mg/kg (rat in vitro thrombosis; po, rat, 45 mg/kg, positive control, read-out: Thrombosis inhibition rates): 58.7%; Wet weights of thrombus (rat in vitro thrombosis; rat, 45 mg/kg, positive control, n = 10, saline group 30.18 ± 3.12): 11.38 ± 1.47 mg; inhibition at 1.46 mg/kg [4]: 32.1%
7 | CCN(CC)CC(=O)Oc1ccc2c(=O)c(-c3ccc(O)cc3)coc2c1 [7-O—N,N-diethyl-aminoacetyl daidzein hydrochloride] |  |  |  |  |  |  |  |  |  |  |  |  | solubility, in words ([3]; conclusion from table 1, methanol 25°C): higher solubility; solubility (solvent equilibrium experiment) ([3]; hydrochloride): 25 mg/g; antithrombotic effect, in words (rat in vitro thrombosis; conclusion from table 2 and table 3 (oral and in vitro administration, rat)): good antithrombotic effect
8 | CCN(CC)CC(=O)Oc1ccc2c(=O)c(-c3ccc(O)cc3)coc2c1 [7-O-N,N-diethyl-aminoacetyl daidzein, 7-O—N,N-diethyl-aminoacetyl daidzein] |  |  |  |  |  |  |  |  |  |  |  | 16.3 | 
